Laboratory results: patent publication US7772156B2, “Microbicidal compositions including a cyanodithiocarbimate and a second microbicide, and methods of using the same” (Buckman Laboratories International, Inc., priority 2006, dated 2010)
Where “and” joins values, the source holds several entries; their conditions need not be identical. Equal values may be shown once.

Legend:
Aspergillus niger = assay: Fungal evaluation: growth prevention of Aspergillus niger in mineral salts-glucose medium, synergism by the method of Kull; assay type: cell-based; conditions: for X (QA/Qa+QB/Qb), Test 1 / X (QA/Qa+QB/Qb), Test 2 / X (QA/Qa+QB/Qb), Test 3: combination of S-chloromethyl-S'-hexylcyanodithioimidocarbimate (A) with the named second microbicide (B), Aspergillus niger, 7 days, 25° C., X<1 synergistic, X=1 additive, X>1 antagonistic; for QA = lowest concentration of compound A in the mixture which produced an end point: compound A in mixture with the named compound B; for Qb = lowest concentration of compound B acting alone which produced an end point: named compound B alone; for QB = lowest concentration of compound B in the mixture which produced an end point: named compound B in mixture with compound A
Protocol: Mineral salts-glucose medium was used. To prepare the medium, the following ingredients were added to 1 liter of deionized water: 0.7 g of KH2PO4; 0.7 g of MgSO4·7H2O; 1.0 g of HN4NO3; 0.005 g of NaCl; 0.002 g of FeSO4·7H2O; 0.002 g ZnSO4·7H2O; 0.001 g of MnSO4·7H2O; 10 g of Glucose. The pH of the medium was adjusted to 6 with 1N NaOH. The medium was distributed in 5 ml amounts in test tubes and autoclaved at 121° C. for 20 minutes. The fungus, Aspergillus niger, was grown on potato dextrose agar slant for 5 to 10 days and a spore suspension prepared by washing down the spores from the slant into a sterile saline solution. After addition of the biocides in the desired concentrations in the sterile mineral salts-glucose medium, the fungal spore suspension was added. The final spore concentration was approximately 10^6 cfu/ml. The inoculated media was incubated at 25° C. for 7 days. The experimental design is termed a […] in which each test concentration of compound A is combined with each test concentration of compound B.
End points for the various mixtures were then compared with the end points for the pure active ingredients alone in concomitantly prepared flasks or test tubes.
When the sum of QA/Qa and QB/Qb is greater than one, antagonism is indicated. When the sum is equal to one, additivity is indicated. When the sum is less than one, synergism exists.
For: X<1 A and B are synergistic • X=1 A and B are additive • X>1 A and B are antagonistic For combinations of cyanodithiocarbimate with the selected second microbicide, the calculated values of X in each case are: […]

[1] = cited from earlier work
[2] = complete prevention of growth of Aspergillus niger for seven days

| SMILES | X (QA/Qa+QB/Qb), Test 1 (Aspergillus niger) | QA = lowest concentration of compound A in the mixture which produced an end point (Aspergillus niger; [2]) [ppm active ingredient] | Qb = lowest concentration of compound B acting alone which produced an end point (Aspergillus niger; [2]) [ppm active ingredient] | QB = lowest concentration of compound B in the mixture which produced an end point (Aspergillus niger; [2]) [ppm active ingredient] | X (QA/Qa+QB/Qb), Test 2 (Aspergillus niger) | X (QA/Qa+QB/Qb), Test 3 (Aspergillus niger) | Qa = concentration of compound A acting alone which produced an end point (Aspergillus niger; compound A alone, run concomitantly with the compound B, complete prevention of growth of Aspergillus niger for seven days) | solubility in water [1] |
| --- | --- | --- | --- | --- | --- | --- | --- | --- |
| CCCCCCCCn1sccc1=O [2-N-octyl-4-isothiazolin-3-one] | 0.64 | 0.1 | >0.175 | 0.025 | – | – | – | – |
| CCCCNC(=O)OCC#CI [IPBC, 3-iodo-2-propynyl butyl carbamate] | 0.86 | 0.025 | 0.35 | 0.05 | 0.3 | – | – | – |
| N#CSCSc1nc2ccccc2s1 [TCMTB, 2-(Thiocyanomethylthio)benzothiazole] | 0.27 | 0.15 | 1.0 | 0.05 | 0.25 | 0.7 | – | – |
| N#CSCSC#N [MTC, Methylene-bis(thiocyanate)] | 0.64 | 0.05 | >0.7 | 0.1 | 0.46 | 0.29 | – | – |
| CCCCCCSC(=NC#N)SCCl [Compound A, S-Hexyl-S′-chloromethylcyanodithiocarbimate] | – | – | – | – | – | – | 0.3 ppm active ingredient and 0.25 ppm active ingredient and 0.175 ppm active ingredient and 0.35 ppm active ingredient and 0.2 ppm active ingredient | – |
| CCCCCCCCn1sc(Cl)c(Cl)c1=O [4,5-dichloro-2-N-octyl-4-isothiazolin-3-one] | 0.7 | 0.05 | 0.2 | 0.1 | 0.5 | – | – | – |
| O=C(CBr)OC/C=C\COC(=O)CBr [BBAB, 1,4-bis(bromoacetoxy)-2-butene] | – | – | – | – | – | – | – | extremely low |
| O=C(CBr)c1ccc(O)cc1 [BHAP, 2-bromo-4′-hydroxyacetophenone] | 1.22 | 0.3 | >8.0 | 1.0 | 1.0 | 0.8 | – | – |
